Experimental data as given in patent US6914045B2, “Glycopeptide antibiotics” (Wyeth Holdings Corporation, priority 2001, dated 2005).
Values after ≈ are worked out from the molar mass of the structure shown.

Legend:
Assay in all cases: in vitro antibacterial evaluation, MIC by broth dilution
Format in all cases: cell-based
Staphylococcus sp. = test system: Staphylococcus sp.
Description: (§1) Methods for in vitro Antibacterial Evaluation (Table 1)
(§2) The minimum inhibitory concentration (MIC), the lowest concentration of the antibiotic which inhibits growth of the test organism, is determined by the broth dilution method using Muller-Hinton II […] (Baltimore Biological Laboratories) following the recommendations of the National Committee for Clinical Laboratory Standards [Methods for dilution antimicrobial susceptibility tests for bacteria that grow aerobically, approved standard M7-A2, National Committee for Clinical Laboratory Standards, Villanova, Pa.].
(§3) An inoculum level of 5×10^5 CFU/mL, and a range of antibiotic concentrations (64-0.06 μg/mL) is used. […] The test organisms include a spectrum of Gram-positive bacteria comprised of Staphylococcus sp., Streptococcus sp. and Enterococcus sp. These organisms include recent clinical isolates that are resistant to methicillin, penicillin and/or vancomycin.

Enterococcus sp. = conditions: broth dilution, 18 hours at 35° C.
Description: as §1, §2, §3

Escherichia coli = conditions: 18 hours at 35° C.
Description: as §2, §3

[1] = broth dilution, 18 hours at 35° C.
[2] = strain ATCC 29213; broth dilution, 18 hours at 35° C.
[3] = strain GC 1131; broth dilution, 18 hours at 35° C.
[4] = strain GC 4535; broth dilution, 18 hours at 35° C.
[5] = strain GC 4536; broth dilution, 18 hours at 35° C.
[6] = Enterococcus faecalis (ATCC 29212)
[7] = Enterococcus faecalis (GC 4552)

## CCCCCC(=O)OCC1OC(Oc2ccc(CC3NC(=O)C(C(C)c4ccccc4)NC(=O)CNC(=O)C(CO)NC(=O)C(C(O)C4CNC(=N)N4C4OC(CO)C(O)C(O)C4O)NC(=O)C(C(O)C4CNC(=N)N4)NC3=O)cc2)C(O)C(O)C1OC1OC(CO)C(O)C(O)C1O (stereo not drawn) [Example 95a, Cyclo[glycyl-β-methylphenylalanyl-O-(6-O-hexanoyl-4-O-hexopranosylhexopyranosyl)-tyrosyl-3-(2-iminoimidazolidin-4-yl)sery-3-(3-hexopyranosyl-2-iminoimidazolidin-4-yl)-serylseryl]]
Staphylococcus sp.; [1]
  MIC Coagulase Negative Staphylococcus (GC 4537): 8 µg/mL (≈ 5.74 µM)
  MIC Coagulase Negative Staphylococcus (GC 4538): 4 µg/mL (≈ 2.87 µM)
  MIC Coagulase Negative Staphylococcus (GC 4547): 4 µg/mL (≈ 2.87 µM)
Staphylococcus sp.; [2]
  MIC Staphylococcus aureus (ATCC 29213): 4 µg/mL (≈ 2.87 µM)
Staphylococcus sp.; [3]
  MIC Staphylococcus aureus (GC 1131): 4 µg/mL (≈ 2.87 µM)
Staphylococcus sp.; [4]
  MIC Staphylococcus aureus (GC 4535): 8 µg/mL (≈ 5.74 µM)
Staphylococcus sp.; [5]
  MIC Staphylococcus aureus-SMITH (GC 4536): 4 µg/mL (≈ 2.87 µM)
Staphylococcus sp.; strain GC 4537; broth dilution, 18 hours at 35° C.
  MIC Coagulase Negative Staphylococcus (GC 4537): 8 µg/mL (≈ 5.74 µM)
Staphylococcus sp.; strain GC 4538; broth dilution, 18 hours at 35° C.
  MIC Coagulase Negative Staphylococcus (GC 4538): 4 µg/mL (≈ 2.87 µM)
Staphylococcus sp.; strain GC 4547; broth dilution, 18 hours at 35° C.
  MIC Coagulase Negative Staphylococcus (GC 4547): 4 µg/mL (≈ 2.87 µM)
Enterococcus sp.; [6]
  MIC Enterococcus faecalis (ATCC 29212): 32 µg/mL (≈ 23 µM)
Enterococcus sp.; [7]
  MIC Enterococcus faecalis (GC 4552): 32 µg/mL (≈ 23 µM)
Enterococcus sp.
  MIC Enterococcus faecalis (ATCC 29212): 32 µg/mL (≈ 23 µM)
  MIC Enterococcus faecalis (GC 2242): 16 µg/mL (≈ 11.5 µM)
  MIC Enterococcus faecalis (GC 4552): 32 µg/mL (≈ 23 µM)
Enterococcus sp.; strain GC 2242
  MIC Enterococcus faecalis (GC 2242): 16 µg/mL (≈ 11.5 µM)
Escherichia coli
  MIC Escherichia coli (GC 4559): >64 µg/mL
  MIC Escherichia coli (GC 4560): 2 µg/mL (≈ 1.44 µM)

## CCCCCCC(=O)OCC1OC(Oc2ccc(CC3NC(=O)C(C(C)c4ccccc4)NC(=O)CNC(=O)C(CO)NC(=O)C(C(O)C4CNC(=N)N4C4OC(CO)C(O)C(O)C4O)NC(=O)C(C(O)C4CNC(=N)N4)NC3=O)cc2)C(O)C(O)C1OC1OC(CO)C(O)C(O)C1O (stereo not drawn) [Example 97a, Cyclo[glycyl-β-methylphenylalanyl-O-(6-O-heptanoyl-4-O-hexopyranosylhexopyranosyl)-tyrosyl-3-(2-iniinoimidazolidin-4-yl)seryl-3-(3-hexopyranosyl-2-iminoimidazolidin-4-yl)-serylseryl]]
Staphylococcus sp.; [1]
  MIC Coagulase Negative Staphylococcus (GC 4537): 4 µg/mL (≈ 2.84 µM)
  MIC Coagulase Negative Staphylococcus (GC 4538): 2 µg/mL (≈ 1.42 µM)
  MIC Coagulase Negative Staphylococcus (GC 4547): 2 µg/mL (≈ 1.42 µM)
Staphylococcus sp.; broth dilution, 18 hours at 35° C.; strain GC 4537
  MIC Coagulase Negative Staphylococcus (GC 4537): 4 µg/mL (≈ 2.84 µM)
Staphylococcus sp.; broth dilution, 18 hours at 35° C.; strain GC 4538
  MIC Coagulase Negative Staphylococcus (GC 4538): 2 µg/mL (≈ 1.42 µM)
Staphylococcus sp.; broth dilution, 18 hours at 35° C.; strain GC 4547
  MIC Coagulase Negative Staphylococcus (GC 4547): 2 µg/mL (≈ 1.42 µM)
Staphylococcus sp.; [2]
  MIC Staphylococcus aureus (ATCC 29213): 1 µg/mL (≈ 0.711 µM)
Staphylococcus sp.; [3]
  MIC Staphylococcus aureus (GC 1131): 2 µg/mL (≈ 1.42 µM)
Staphylococcus sp.; [4]
  MIC Staphylococcus aureus (GC 4535): 2 µg/mL (≈ 1.42 µM)
Staphylococcus sp.; [5]
  MIC Staphylococcus aureus-SMITH (GC 4536): 0.5 µg/mL (≈ 0.355 µM)
Enterococcus sp.; [6]
  MIC Enterococcus faecalis (ATCC 29212): 8 µg/mL (≈ 5.68 µM)
Enterococcus sp.; Enterococcus faecalis (GC 2242)
  MIC Enterococcus faecalis (GC 2242): 4 µg/mL (≈ 2.84 µM)
Enterococcus sp.; [7]
  MIC Enterococcus faecalis (GC 4552): 16 µg/mL (≈ 11.4 µM)
Enterococcus sp.
  MIC Enterococcus faecalis (ATCC 29212): 8 µg/mL (≈ 5.68 µM)
  MIC Enterococcus faecalis (GC 2242): 4 µg/mL (≈ 2.84 µM)
  MIC Enterococcus faecalis (GC 4552): 16 µg/mL (≈ 11.4 µM)
Escherichia coli
  MIC Escherichia coli (GC 4559): >64 µg/mL
  MIC Escherichia coli (GC 4560): 1 µg/mL (≈ 0.711 µM)
